In patent US11332438B2, “Creatine prodrugs, compositions and methods of use thereof” (Ultragenyx Pharmaceutical Inc., priority 2017, dated 2022):

What was measured:
[1] = Plasma stability, mouse plasma; format: in vitro ADME; settings: for half-life: 37 °C, read-out: Plasma Stability Mouse t1/2
Experimental: (§1) The stabilities of creatine prodrugs can be evaluated in one or more in vitro systems using a variety of preparations following methods known in the art. Experimental conditions useful for the in vitro studies are described in Table 1. Prodrug is added to each preparation in triplicate. […]
(§2) Protocol for plasma stability for early screen macrocycles (Method A):
(§3) Frozen plasma was thawed by placing at 37° C. quickly and centrifuged at 3,000 rpm for 8 minutes to remove clots. Then the supernatant was pipetted and pooled as the plasma to be used in the experiment. The plasma was placed on ice until used. The test compounds and reference compounds spiking solution was prepared as a 2.5 mM test compounds spiking solution A: Add 20 μL of 10 mM test compounds stock solution to 60 μL DMSO. 0.1 mM Spiking solution B was prepared: Add 40 μL of spiking solution A to 960 μL of […] Sodium phosphate buffer with 0.5% BSA. […] For 0-min, 400 μL of ACN containing IS was added to the wells of 0-min plate and then 90 μL of plasma was added. […] 50 μL of the supernatant was transferred from each well into a 96-well sample plate containing 120 μL of ultra pure water (Millipore, ZMQS50F01) and analyzed by LC/MS.
(§4) Protocol for plasma stability (Method B):
(§5) The frozen plasma was thawed in a 37° C. water bath and then, if needed, adjusted to pH=7.4 then preheated in a 37° C. incubator. The test article was dissolved in 10% DMSO/water and spiked into plasma pre-plated into 96 well plates at a final concentration of 1 μM. Discrete incubations were performed at 37° C. and included 5 time points: t=0, 2, 5, 15, and 30 min. Samples were then crashed with 4× volume, ice cold 20% water/80% acetonitrile and spun at 4000 g for 10 mins. The supernatant was dried down and reconstituted with water and analyzed by LC-MS/MS. The half life in minute was calculated.

[2] = Liver microsome stability, mouse; format: in vitro ADME; settings: liver microsomes, read-out: Microsome Stability Mouse t1/2
Experimental: as §1
(§6) Protocol for Microsomal Stability:
(§7) For reference compound, a 500 μM spiking solution was prepared: add 10 μL of 10 mM DMSO stock solution into 190 μL ACN. […] For test compound, a 5 mM spiking solution was prepared: add 10 μL of 10 mM DMSO stock solution into 10 μL ACN. […] NADPH stock solution (6 mM) was prepared by dissolving NADPH into buffer 0.1 M Potassium Phosphate buffer, 1.0 mM EDTA, pH 7.4. […] For 0-min, 135 μL of ACN containing IS was added to the wells of 0-min plate and then 15 μL of NADPH stock solution (6 mM) was added. 15 μL of NADPH stock solution (6 mM) was added to the samples designated as 0-, 5-, 10-, 20-, 30-min, 60-min; 15 μL of buffer 0.1 M Potassium Phosphate buffer, 1.0 mM EDTA, pH 7.4, was added to the samples designated as 60-min without NADPH. At 5-min, 10-min, 20-min, and 30-min, 60-min 135 μL of ACN containing IS was added to the wells of corresponding plates, respectively, to stop the reaction. […] 50 μL of the supernatant from each well was transferred into a 96-well sample plate containing 50 μL of ultra pure water (Millipore, ZMQS50FOI) and analyzed by LC/MS.

[3] = Plasma stability, human plasma; format: in vitro ADME; settings: for half-life: 37 °C, read-out: Plasma Stability Human t1/2
Experimental: as §1, §2, §3, §4, §5

[4] = Chemical stability in phosphate buffered saline (PBS); format: physicochemical; settings: 50 μM prodrug
Experimental: (§8) Chemical stability of creatine prodrugs in phosphate buffered saline (PBS), simulated intestinal fluid (SIF) without pancreatin, simulated gastric fluid (SGF) without pepsin were determined by LC-UV, LC-CAD, LC-UV-CAD or LC-MS/MS as appropriate. Creatine prodrugs of the present disclosure (50 μM) were incubated at 37° C. according to described protocols and prodrug levels were compared between t=0, t=15, t=60, and t=120 mins by peak area ratio to determine the percentage remained at t=120 mins (2 h).
(§9) Protocol for PBS, SIF and SGF stability for screening:
(§10) Prodrugs (50 μM) were incubated in PBS, FaSSIF (Biorelevant) or FaSSGF (Biorelevant) at 37° C.

[5] = Liver microsome stability, human; format: in vitro ADME; settings: liver microsomes, read-out: Microsome Stability Human t1/2
Experimental: as §1, §6, §7

[6] = Chemical stability in simulated gastric fluid (SGF) without pepsin; format: physicochemical; settings: 50 μM prodrug
Experimental: as §8, §9, §10

SMILES | half-life ([1]; Table 2A) [h] | half-life at 10 μM ([2]; pH 7.4, Table 2A) [h] | half-life ([3]; Table 2A) [h] | Chemical Stability PBS % T0 at 2 hours at 37 °C. ([4]; Table 2A) [%] | half-life at 10 μM ([5]; pH 7.4, Table 2A) [h] | Chemical Stability SGF, no enzyme % T0 at 2 hours at 37 °C. ([6]; Table 2A) [%] | also measured
[2H]C([2H])([2H])N(CCO)C(=N)NC(=O)CCCCCCCCCC [Compound 9] | 0.55 | < 0.0833 | > 3 | 0 | < 0.0833 | 99 | –
[2H]C([2H])([2H])N(CC(=O)O)C(=N)NC(=O)c1cccnc1 [Compound 21] | > 3 | > 2.42 | > 3 | 105 | > 2.42 | 74 | –
[2H]C([2H])([2H])N(CC(=O)[O-])C(=N)NC(=O)CCCC/C=C\CCCCCCCCCCC.[Na+] [Compound 25] | > 3 | > 2.42 | > 3 | 89 | > 2.42 | 72 | –
[2H]C([2H])([2H])N(CC(=O)[O-])C(=N)NC(=O)CCCCC/C=C\CCCCCCCCCC.[Na+] [Compound 26] | > 3 | > 2.42 | > 3 | 45 | 1.13 | 95 | –
[2H]C([2H])([2H])N(CC(=O)[O-])C(=N)NC(=O)CCCCCCCCCC/C=C\CCCCC.[Na+] [Compound 27] | > 3 | 0.167 | > 3 | 67 | 0.233 | 96 | –
[2H]C([2H])([2H])N(CC(=O)O)C(=N)NC(=O)CCCCCCC/C=C\CCCCCC [Compound 28] | > 3 | 1.4 | > 3 | 51 | 1.5 | 99 | –
[2H]C([2H])([2H])N(CC(=O)[O-])C(=N)NC(=O)CCCCCCCCCCCC.[Na+] [Compound 29] | > 3 | 1.83 | > 3 | 64 | 0.983 | 91 | –
[2H]C([2H])([2H])N(CC(=O)[O-])C(=N)NC(=O)CCCCCCCCCCC.[Na+] [Compound 31] | > 3 | > 2.42 | > 3 | 98 | 0.983 | 98 | –
[2H]C([2H])([2H])N(CC(=O)[O-])C(=N)NC(=O)CCCCCCCCCC.[Na+] [Compound 32] | > 3 | > 2.42 | > 3 | – | 1.83 | – | –
[2H]C([2H])([2H])N(CC(=O)O)C(=NC(=O)OC(C)(C)C)NC(=O)CCCCCCCCCC [Compound 34] | > 3 | 2.05 | > 3 | – | > 3 | – | –
[2H]C([2H])([2H])N(CC(=O)[O-])C(=N)NC(=O)CCCCCCC.[Li+] [Compound 37] | > 3 | > 2.42 | > 3 | – | 1.9 | – | –
Cl.[2H]C([2H])([2H])N(CC(=O)OCc1oc(=O)oc1C)C(=N)NC(=O)CCCCCCCCCC [Compound 48] | – | – | – | 97 | – | 98 | –
Cl.[2H]C([2H])([2H])N(CC(=O)OC(C)C(C)(C)C)C(=N)NC(=O)CCCCCC (stereo not shown) [Compound 53] | – | – | – | – | – | – | Chemical Stability PBS % T0 at 2 hours at 37 °C. ([4]; Table 2B): 64%; Chemical Stability SGF, no enzyme % T0 at 2 hours at 37 °C. ([6]; Table 2B): 91%
Cl.[2H]C([2H])([2H])N(CC(=O)OC(C)(C)C(F)(F)F)C(=N)NC(=O)CCCCCC [Compound 55] | – | – | – | – | – | – | Chemical Stability PBS % T0 at 2 hours at 37 °C. ([4]; Table 2B): 97%; Chemical Stability SGF, no enzyme % T0 at 2 hours at 37 °C. ([6]; Table 2B): 94%
[2H]C([2H])([2H])N(CC(=O)[O-])C(=N)NC(=O)CCCCCCCCCO.[Na+] [Compound 58] | – | – | – | – | – | – | half-life ([1]; Table 2B): > 3 h; half-life at 10 μM ([2]; pH 7.4, Table 2B): > 1.5 h; half-life ([3]; Table 2B): > 3 h; half-life at 10 μM ([5]; pH 7.4, Table 2B): > 1.5 h
Cl.[2H]C([2H])([2H])N(CC(=O)OC(C)(C)C(F)(F)F)C(=N)NC(=O)CCCCCCCCCC [Compound 59] | – | – | – | – | – | – | Chemical Stability PBS % T0 at 2 hours at 37 °C. ([4]; Table 2B): 101%; Chemical Stability SGF, no enzyme % T0 at 2 hours at 37 °C. ([6]; Table 2B): 30%
O=CO.[2H]C([2H])([2H])N1CC(=O)OCCCCCCCC(=O)NC1=N [Compound BB, 5-imino-4-trideuteriomethylguanidino-1-oxa-4,6-diazacyclotetradecane-2,7-dione Formate] | – | – | – | – | – | – | Plasma Stability Mouse t1/2 [1]: <2 min; Plasma Stability Human t1/2 [3]: 9 min
[2H]C([2H])([2H])N1CC(=O)OCCCCCCCCC(=O)NC1=N [Compound DD, 5-imino-4-trideuteriomethyl-1-oxa-4,6-diazacyclopentadecane-2,7-dione] | – | – | – | – | – | – | half-life ([1]; Table 2C, macrocycles): < 0.0333 h; half-life ([3]; Table 2C, macrocycles): 0.138 h
Cl.[2H]C([2H])([2H])N1CC(=O)OC(C)CCCCCCCCCC(=O)NC1=N (stereo not shown) [Compound K, 5-imino-4-trideuteriomethylguanidino-17-dimethyl-1-oxa-4,6-diazacycloheptadecane-2,7-dione Dihydrochloride] | – | – | – | – | – | – | half-life ([1]; Table 2C, macrocycles): 0.0333 h; half-life ([3]; Table 2C, macrocycles): 0.217 h
Cl.[2H]C([2H])([2H])N1CC(=O)OC(CC)CCCCCCCCCC(=O)NC1=N (stereo not shown) [Compound L, 17-ethyl-5-imino-4-trideuteriomethyl-1-oxa-4,6-diazacycloheptadecane-2,7-dione Hydrochloric Acid Salt] | – | – | – | – | – | – | half-life ([1]; Table 2C, macrocycles): 0.05 h; half-life at 10 μM ([2]; pH 7.4, Table 2C): 0.01 h; half-life ([3]; Table 2C, macrocycles): 0.567 h; half-life at 10 μM ([5]; pH 7.4, Table 2C): 0.0267 h
Cl.[2H]C([2H])([2H])N1CC(=O)O[C@@H](C)CCCCCCCCCC(=O)NC1=N [Compound PP, (S)-5-imino-17-methyl-4-(methyl-d3)-1-oxa-4,6-diazacycloheptadecane-2,7-dione Hydrochloride] | – | – | – | – | – | – | half-life ([1]; Table 2C, macrocycles): 0.0183 h; half-life ([3]; Table 2C, macrocycles): 0.133 h
[2H]C([2H])([2H])N1CC(=O)OCCCCCCCCCCCC(=O)NC1=N [Compound QQ, 5-imino-4-trideuteriomethyl-1-oxa-4,6-diazacyclooctadecane-2,7-dione] | – | – | – | – | – | – | half-life at 10 μM ([2]; pH 7.4, Table 2C): 0.0667 h; Chemical Stability PBS % T0 at 2 hours at 37 °C. ([4]; Table 2C): 85%; half-life at 10 μM ([5]; pH 7.4, Table 2C): 0.15 h; Chemical Stability SGF, no enzyme % T0 at 2 hours at 37 °C. ([6]; Table 2C): 79%
O=CO.[2H]C([2H])([2H])N1CC(=O)OCCCCCCCCCC(=O)NC1=N [Compound SS, 5-imino-4-trideuteriomethyl-1-oxa-4,6-diazacyclohexadecane-2,7-dione Formic Acid Salt] | – | – | – | – | – | – | half-life ([3]; Table 2C, macrocycles): > 1.5 h; Chemical Stability PBS % T0 at 2 hours at 37 °C. ([4]; Table 2C): 0%; Chemical Stability SGF, no enzyme % T0 at 2 hours at 37 °C. ([6]; Table 2C): 85%
